Experiment: Solubility (product profile)
Format: physicochemical
Details: API
Source text: Further information providing the solubility, particle size, viscosity, and other product profile parameters of exemplary CLS-AX compositions (active pharmaceutical ingredient (API); and drug product) are provided in Table 1C.

SMILES: CNC(=O)c1ccccc1Sc1ccc2c(/C=C/c3ccccn3)n[nH]c2c1 [Axitinib]
- Solubility (solvent): DMSO

— US20250025452A1 (Clearside Biomedical, Inc., priority 2023, published 2025)
